The subject of one test is S. aureus ATCC 25923. Briefly: microbe, parasite or virus in culture. From the text: (§1) A total of 18 bacterial strains relevant to orthopedic infections were used for microbiological tests, including 8 ATCC (American Type Culture Collection, ATCC, Manassas, VA, USA) and 10 clinical isolates (CI) from the Laboratory of Clinical Chemistry and Microbiology, IRCCS Ospedale Galeazzi–Sant’Ambrogio of Milan (Italy) strain collection. The ATCC strains were used for the first screening (MIC/MBC) of all the AMPs produced, while the clinical isolates were used for further MIC/MBC assays on selected AMPs. Among CI, S. epidermidis GOI1153754-03-14 has been already characterized and used in previous studies. All the strains were stocked at −80°C and working stocks were stored at −20 °C. At the occurrence, the bacteria were resuscitated in Brain Hearth Infusion (BHI, Millipore, Milan, Italy) broth at 37 °C for 18 h from the working stocks.
(§2) To determine the minimum inhibitory concentration (MIC) and the minimum bactericidal concentration (MBC), ISO20776-1 and Clinical and Laboratory Standards Institute guidelines were followed. A commercial synthetic LL-37 (Aurogene, Rome, Italy) was used as the control in the MIC and MBC assays. A stock solution of each AMP was prepared at 600 µg/mL to achieve a final concentration of 300 µg/mL. […] The MIC was determined according to the aforementioned standard guidelines. The MBC was determined by plating 2 µL of culture from each well of the MIC plates on a Tryptic Soy Agar (TSA, Millipore, Milan, Italy) plate and incubated for 24 h at 37 °C. The concentration at which there was no growth was recorded as MBC. Each experiment was carried out in triplicate. Representative MIC and MBC values for vancomycin and gentamicin were assessed to offer a benchmark comparison for the AMPs. Quality control was conducted with Staphylococcus aureus ATCC 29,213 and vancomycin according to EUCAST guidelines.

For another test, the system named is E. coli ATCC 25922. As to the kind of experiment: microbe, parasite or virus in culture.
Text: as §1, §2

For test [1], the system named is S. epidermidis ATCC 14990. As to the kind of experiment: microbe, parasite or virus in culture.
Text: as §1, §2

The next test deals with S. aureus ATCC 43300. As to the kind of experiment: microbe, parasite or virus in culture.
Text: as §1, §2

The subject of test [2] is S. epidermidis ATCC 35984. As to the kind of experiment: microbe, parasite or virus in culture.
Text: as §1, §2

Another test deals with P. aeruginosa ATCC 27853. As to the kind of experiment: microbe, parasite or virus in culture.
Text: as §1, §2

The test system of the next test is S. aureus ATCC 49230. Briefly: microbe, parasite or virus in culture.
Text: as §1, §2

The test system of test [3] is S. epidermidis GOI1153754-03-14 (CI). Briefly: microbe, parasite or virus in culture.
Text: as §1, §2

A further test deals with E. coli Eco61 (CI). To be noted: E. coli Eco61 clinical isolate; triplicate.
Text: as §1, §2

Another test has as its system S. aureus Sau221 (CI). The conditions noted are these: S. aureus Sau221 clinical isolate; triplicate.
Text: as §1, §2

Another test has as its system S. aureus Sau39 (CI). The conditions noted are these: S. aureus Sau39 clinical isolate; triplicate.
Text: as §1, §2

The subject of another test is E. coli Eco75 (CI). The conditions noted are these: E. coli Eco75 clinical isolate; triplicate.
Text: as §1, §2

The next test concerns P. aeruginosa Pae2 (CI). To be noted: P. aeruginosa Pae2 clinical isolate; triplicate.
Text: as §1, §2

A further test deals with E. coli Eco53 (CI). To be noted: E. coli Eco53 clinical isolate; triplicate.
Text: as §1, §2

The test system of another test is P. aeruginosa Pae61 (CI). The conditions noted are these: P. aeruginosa Pae61 clinical isolate; triplicate.
Text: as §1, §2

For another test, the system named is P. aeruginosa Pae82 (CI). The conditions noted are these: P. aeruginosa Pae82 clinical isolate; triplicate.
Text: as §1, §2

A further test deals with S. aureus Sau89 (CI). The conditions noted are these: S. aureus Sau89 clinical isolate; triplicate.
Text: as §1, §2

Converted amounts (≈) assume the structure as drawn. Peptide text beside a SMILES is read from it.

Consider `CC[C@H](C)[C@H](NC(=O)[C@H](CCCCN)NC(=O)[C@H](CCC(=O)O)NC(=O)[C@H](CCCCN)NC(=O)[C@@H](N)CO)C(=O)NCC(=O)N[C@@H](CCCCN)C(=O)N[C@@H](CCC(=O)O)C(=O)N[C@@H](Cc1ccccc1)C(=O)N[C@@H](CCCCN)C(=O)N[C@@H](CCCNC(=N)N)C(=O)N[C@H](C(=O)N[C@H](C(=O)N[C@@H](CCC(N)=O)C(=O)N[C@@H](CCCNC(=N)N)C(=O)N[C@H](C(=O)N[C@@H](CCCCN)C(=O)N[C@@H](CC(=O)O)C(=O)N[C@@H](Cc1ccccc1)C(=O)N[C@@H](CC(C)C)C(=O)N[C@@H](CCCNC(=N)N)C(=O)N[C@@H](CC(N)=O)C(=O)N[C@@H](CC(C)C)C(=O)N[C@H](C(N)=O)C(C)C)[C@@H](C)CC)C(C)C)[C@@H](C)CC` [SK-24] (H-SKEKIGKEFKRIVQRIKDFLRNLV-NH2), for which the “Minimum Inhibitory Concentration (MIC)” value with S. aureus ATCC 25923 (ATCC 25923, 18 h) was 150.00 µg/mL; in the test on E. coli ATCC 25922 (ATCC 25922, 18 h) it was 75.00 µg/mL; in test [1] (ATCC 14990, 18 h) it was 18.75 µg/mL; with S. aureus ATCC 43300 (ATCC 43300, 18 h) it was 150.00 µg/mL; in test [2] (ATCC 35984, 18 h) it was 37.50 µg/mL; in the test on P. aeruginosa ATCC 27853 (ATCC 27853, 18 h), 150.00 µg/mL. For the same compound, the “Minimum Inhibitory Concentration (MIC)” value in the test on S. aureus ATCC 49230 (ATCC 49230, 18 h) is reported as 75.00 µg/mL. Besides, the “Minimum Bactericidal Concentration (MBC)” value is over 300.00 µg/mL in the test with S. aureus ATCC 25923 (ATCC 25923, 24 h); 75.00 µg/mL with E. coli ATCC 25922 (ATCC 25922, 24 h); 150.00 µg/mL in [1] (ATCC 14990, 24 h); over 300.00 µg/mL in the test on S. aureus ATCC 43300 (ATCC 43300, 24 h); 300.00 µg/mL in test [2] (ATCC 35984, 24 h); 150.00 µg/mL with P. aeruginosa ATCC 27853 (ATCC 27853, 24 h). In the test with S. aureus ATCC 49230 (ATCC 49230, 24 h), the “Minimum Bactericidal Concentration (MBC)” value is over 300.00 µg/mL.
For the compound `CNC(C)C1CCC(N)C(OC2C(N)CC(N)C(OC3OCC(C)(O)C(NC)C3O)C2O)O1` (stereo not shown) [Gen, gentamicin], the “Susceptibility category by MIC (EUCAST clinical breakpoints tables, v. 14)” value is “S” in the test on S. aureus ATCC 25923 (S. aureus 25923), “S” with E. coli ATCC 25922 (E. coli 25922), “R” in test [3] (S. epidermidis GOI1153754-03-14) and “S” in the test with P. aeruginosa ATCC 27853 (P. aeruginosa 27853). For the same compound, the MBC was 2.5 µg/mL (≈ 5.23 µM) in the test with S. aureus ATCC 25923 (Staphylococcus aureus, ATCC25923, 24 h, read-out: Minimum Bactericidal Concentration (MBC)); 2.5 µg/mL (≈ 5.23 µM) in the test with E. coli ATCC 25922 (Escherichia coli, ATCC25922, 24 h, read-out: Minimum Bactericidal Concentration (MBC)); over 20 µg/mL in [3] (Staphylococcus epidermidis, read-out: Minimum Bactericidal Concentration (MBC)); 2.5 µg/mL (≈ 5.23 µM) in the test with S. aureus ATCC 43300 (Staphylococcus aureus, ATCC43300, 24 h, read-out: Minimum Bactericidal Concentration (MBC)); 2.5 µg/mL (≈ 5.23 µM) in the test on P. aeruginosa ATCC 27853 (Pseudomonas aeruginosa, ATCC27853, 24 h, read-out: Minimum Bactericidal Concentration (MBC)). Further, the MIC in the test on S. aureus ATCC 25923 (Staphylococcus aureus, ATCC25923, read-out: Minimum Inhibitory Concentration (MIC)) was 0.6 µg/mL (≈ 1.26 µM); with E. coli ATCC 25922 (Escherichia coli, ATCC25922, read-out: Minimum Inhibitory Concentration (MIC)) it was 0.6 µg/mL (≈ 1.26 µM); in test [3] (Staphylococcus epidermidis, read-out: Minimum Inhibitory Concentration (MIC)), over 20 µg/mL; in the test on S. aureus ATCC 43300 (Staphylococcus aureus, ATCC43300, read-out: Minimum Inhibitory Concentration (MIC)) it was 0.6 µg/mL (≈ 1.26 µM); in the test with P. aeruginosa ATCC 27853 (Pseudomonas aeruginosa, ATCC27853, read-out: Minimum Inhibitory Concentration (MIC)), 0.6 µg/mL (≈ 1.26 µM). Moreover, in the test with S. aureus ATCC 43300 (S. aureus 43,300 as printed in text), the “Susceptibility category by MIC (EUCAST clinical breakpoints tables, version 14)” value is reported as “S”.
For the compound `CC[C@H](C)[C@H](NC(=O)[C@H](CCCCN)NC(=O)[C@H](CCC(=O)O)NC(=O)[C@H](CCCCN)NC(=O)[C@H](CO)NC(=O)[C@H](CCCCN)NC(=O)[C@H](CCCNC(=N)N)NC(=O)[C@H](Cc1ccccc1)NC(=O)[C@H](Cc1ccccc1)NC(=O)[C@H](CC(=O)O)NC(=O)CNC(=O)[C@H](CC(C)C)NC(=O)[C@@H](N)CC(C)C)C(=O)NCC(=O)N[C@@H](CCCCN)C(=O)N[C@@H](CCC(=O)O)C(=O)N[C@@H](Cc1ccccc1)C(=O)N[C@@H](CCCCN)C(=O)N[C@@H](CCCNC(=N)N)C(=O)N[C@H](C(=O)N[C@H](C(=O)N[C@@H](CCC(N)=O)C(=O)N[C@@H](CCCNC(=N)N)C(=O)N[C@H](C(=O)N[C@@H](CCCCN)C(=O)N[C@@H](CC(=O)O)C(=O)N[C@@H](Cc1ccccc1)C(=O)N[C@@H](CC(C)C)C(=O)N[C@@H](CCCNC(=N)N)C(=O)N[C@@H](CC(N)=O)C(=O)N[C@@H](CC(C)C)C(=O)N[C@H](C(=O)N1CCC[C@H]1C(=O)N[C@@H](CCCNC(=N)N)C(=O)N[C@H](C(=O)N[C@@H](CCC(=O)O)C(=O)N[C@@H](CO)C(=O)O)[C@@H](C)O)C(C)C)[C@@H](C)CC)C(C)C)[C@@H](C)CC` [cLL-37, reference compound], the “Minimum Inhibitory Concentration (MIC)” value with S. aureus ATCC 25923 (S. aureus 25923, ISO20776-1/CLSI, triplicate) is on record as 37.50 µg/mL; in [1] (S. epidermidis 14990, ISO20776-1/CLSI, triplicate) it was 75.00 µg/mL; in the test on S. aureus ATCC 43300 (S. aureus 43300, ISO20776-1/CLSI, triplicate) it was 75.00 µg/mL; in test [2] (S. epidermidis 35984, ISO20776-1/CLSI, triplicate), 9.38 µg/mL; with P. aeruginosa ATCC 27853 (P. aeruginosa 27853, ISO20776-1/CLSI, triplicate), 37.50 µg/mL; with S. aureus ATCC 49230 (S. aureus 49230, ISO20776-1/CLSI, triplicate) it was 75.00 µg/mL. The “Minimum Inhibitory Concentration (MIC)” value in the test on E. coli Eco61 (CI) is recorded as 37.50 µg/mL; in the test with S. aureus Sau221 (CI), over 300.00 µg/mL; in the test on S. aureus Sau39 (CI) it was 150.00 µg/mL; with E. coli Eco75 (CI), 37.50 µg/mL; in the test with P. aeruginosa Pae2 (CI) it was 75.00 µg/mL; with E. coli Eco53 (CI) it was 37.50 µg/mL. Besides, the “Minimum Inhibitory Concentration (MIC)” value is on record as 37.50 µg/mL in the test with P. aeruginosa Pae61 (CI), 37.50 µg/mL in the test with P. aeruginosa Pae82 (CI) and over 300.00 µg/mL with S. aureus Sau89 (CI). For the same compound, the “Minimum Bactericidal Concentration (MBC)” value in the test with S. aureus ATCC 25923 (S. aureus 25923, plated on TSA, 24 h 37 °C, triplicate) is listed as over 300.00 µg/mL; in the test with E. coli ATCC 25922 (E. coli 25922, plated on TSA, 24 h 37 °C, triplicate), 75.00 µg/mL; in test [1] (S. epidermidis 14990, 2 µL from MIC wells plated on TSA, 24 h 37 °C, triplicate), 75.00 µg/mL; in [3] (S. epidermidis GOI1153754-03-14 clinical isolate, triplicate), over 300.00 µg/mL; in the test on S. aureus ATCC 43300 (S. aureus 43300, plated on TSA, 24 h 37 °C, triplicate), over 300.00 µg/mL; in [2] (S. epidermidis 35984, plated on TSA, 24 h 37 °C, triplicate), over 300.00 µg/mL. For the same compound, the “Minimum Bactericidal Concentration (MBC)” value was 75.00 µg/mL in the test on P. aeruginosa ATCC 27853 (P. aeruginosa 27853, plated on TSA, 24 h 37 °C, triplicate); over 300.00 µg/mL in the test on S. aureus ATCC 49230 (S. aureus 49230, plated on TSA, 24 h 37 °C, triplicate); 75.00 µg/mL with E. coli Eco61 (CI); over 300.00 µg/mL in the test with S. aureus Sau221 (CI); over 300.00 µg/mL in the test on S. aureus Sau39 (CI); 300.00 µg/mL in the test with E. coli Eco75 (CI). For the same compound, the “Minimum Bactericidal Concentration (MBC)” value in the test with P. aeruginosa Pae2 (CI) is listed as 75.00 µg/mL; in the test with E. coli Eco53 (CI), 300.00 µg/mL; in the test on P. aeruginosa Pae61 (CI), 150.00 µg/mL; in the test on P. aeruginosa Pae82 (CI), 75.00 µg/mL; in the test on S. aureus Sau89 (CI), over 300.00 µg/mL.

The record behind these values is publication PMC11350787, “Antimicrobial Properties and Cytotoxicity of LL-37-Derived Synthetic Peptides to Treat Orthopedic Infections” (Antibiotics, 2024).
